Results as given in patent publication US8871756B2 (Hoffmann-La Roche Inc., priority 2011, dated 2014).
Counter-ions that a name gives are not always drawn.

System: RSV Long strain
Assay: Viral cytopathic effect (CPE) assay, anti-RSV activity
Format: cell-based, Respiratory Syncytial Virus
Details: RSV Long strain (ATCC); cell viability after 6 days, Cell Counting kit-8
Method in brief: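 EC50 was derived from CCK-8 viability at 450/630 nm measured 6 days post-infection. Infection used enough RSV Long strain for approximately 80–90% cytopathic effect, in the presence of half-log serially diluted compound. Cells were plated the day before at 6×10^3 per well in DMEM/10% FBS.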

| SMILES | EC50 |
| --- | --- |
| Cc1ccc2nc(N3CCS(=O)(=O)c4ccccc4C3)nc(NCCC(F)CN)c2c1 (stereo not drawn) [Example 62-4, N^˜4^˜-[2-(1,1-Dioxido-2,3-dihydro-1,4-benzothiazepin-4(5H)-yl)-6-methylquinazolin-4-yl]-2-fluorobutane-1,4-diamine] | 0.019 µM |
| Cc1ccc2nc(N3CC[S+]([O-])c4ccccc4C3)nc(NCC3(CN)COC3)c2c1 (stereo not drawn) [Example 62-1, N-{[3-(Aminomethyl)oxetan-3-yl]methyl}-6-methyl-2-(1-oxido-2,3-dihydro-1,4-benzothiazepin-4(5H)-yl)quinazolin-4-amine] | 0.0003 µM |

Same assay, conditions: human respiratory syncytial virus, 144 h, RSV Long strain (ATCC); cell viability after 6 days, Cell Counting kit-8

| SMILES | EC50 |
| --- | --- |
| Cc1cccc2c(NCCCCCCCCCCN)cc(N3CCS(=O)(=O)c4ccccc4C3)nc12 [Example 12-4, N-[2-(1,1-Dioxido-2,3-dihydro-1,4-benzothiazepin-4(5H)-yl)-8-methylquinolin-4-yl]decane-1,10-diamine] | 0.764 µM |
| Cc1ccc2nc(N3CCC(F)(F)c4ccccc4C3)cc(NCC(O)CO)c2c1 (stereo not drawn) [Example 110-5, 3-{[2-(5,5-Difluoro-1,3,4,5-tetrahydro-2H-2-benzazepin-2-yl)-6-methylquinolin-4-yl]amino}propane-1,2-diol] | 1.66 µM |
| CC(O)c1ccc2nc(N3CCS(=O)(=O)c4ccccc4C3)cc(NCCCN)c2c1 (stereo not drawn) [Example 82, 1-{4-[(3-Aminopropyl)amino]-2-(1,1-dioxido-2,3-dihydro-1,4-benzothiazepin-4(5H)-yl)quinolin-6-yl}ethanol] | 0.014 µM |
| Cc1ccc2nc(N3CC[S+]([O-])c4ccccc4C3)nc(N3C[C@@H](N)[C@H](F)C3)c2c1 (relative stereo) [Example 62-7, trans-4-Fluoro-1-[6-methyl-2-(1-oxido-2,3-dihydro-1,4-benzothiazepin-4(5H)-yl)quinazolin-4-yl]pyrrolidin-3-amine] | 0.186 µM |
| Cc1ccc2nc(N3CCS(=O)(=O)c4ccccc4C3)cc(N3C[C@@H](O)[C@@H](N)C3)c2c1 (relative stereo) [Example 13, cis-4-amino-1-[2-(1,1-Dioxido-2,3-dihydro-1,4-benzothiazepin-4(5H)-yl)-6-methylquinolin-4-yl]pyrrolidin-3-ol] | 0.026 µM |
| Cc1ccc2nc(N3CCS(=O)(=O)c4ccccc4C3)cc(NCCC3(N)CC3)c2c1 [Example 20-3, [2-(1-Amino-cyclopropyl)-ethyl]-[2-(1,1-dioxido-2,3-dihydro-1,4-benzothiazepin-4(5H)-yl)-6-methylquinolin-4-yl]-amine] | 0.093 µM |
| Cc1ccc2nc(N3CCS(=N)(=O)c4ccccc4C3)cc(NCCN)c2c1 (stereo not drawn) [Example 76, N-[2-(1-Imino-1-oxido-1,2,3,5-tetrahydro-4H-1lambda˜4˜,4-benzothiazepin-4-yl)-6-methylquinolin-4-yl]ethane-1,2-diamine] | 0.006 µM |
| NCC1(CNc2cc(N3CC[S+]([O-])c4ccccc4C3)nc3ccc(Cl)cc23)COC1 (stereo not drawn) [Example 18-9, N-{[3-(Aminomethyl)oxetan-3-yl]methyl}-6-chloro-2-(1-oxido-2,3-dihydro-1,4-benzothiazepin-4(5H)-yl)quinolin-4-amine] | 0.005 µM |
| Cc1ccc2nc(N3CCS(=O)(=O)c4ccccc4C3)cc(NCC3(CO)COC3)c2c1 [Example 3-9, [3-({[2-(1,1-Dioxido-2,3-dihydro-1,4-benzothiazepin-4(5H)-yl)-6-methylquinolin-4-yl]amino}methyl)oxetan-3-yl]methanol] | 0.248 µM |
| NC1(CNc2cc(N3CCSc4ccccc4C3)nc3ccc(Cl)cc23)COC1 [Example 4-1, N-[(3-Aminooxetan-3-yl)methyl]-6-chloro-2-(2,3-dihydro-1,4-benzothiazepin-4(5H)-yl)quinolin-4-amine] | 0.269 µM |
| Cc1ccc2nc(N3CCS(=O)(=O)c4ccccc4C3)cc(NS(C)(=O)=O)c2c1 [Example 47-7, N-[2-(1,1-Dioxido-2,3-dihydro-1,4-benzothiazepin-4(5H)-yl)-6-methylquinolin-4-yl]methanesulfonamide trifluoroacetate] | 3.41 µM |
| CS(=O)(=O)c1ccc2nc(N3CCCc4ccccc4C3)cc(NCCN)c2c1 [Example 118-24, N-[6-(Methylsulfonyl)-2-(1,3,4,5-tetrahydro-2H-2-benzazepin-2-yl)quinolin-4-yl]ethane-1,2-diamine] | 6.45 µM |
| Cc1cc2c(NCC3(N)COC3)cc(N3CCS(=O)(=O)c4ccccc4C3)nc2c(F)c1F [Example 5-10, N-[(3-Aminooxetan-3-yl)methyl]-2-(1,1-dioxido-2,3-dihydro-1,4-benzothiazepin-4(5H)-yl)-7,8-difluoro-6-methylquinolin-4-amine] | 0.397 µM |
| Cc1ccc2nc(N3CCS(=O)(=O)c4ccccc4C3)cc(S(=O)(=O)NCCN)c2c1 [Example 103, N-(2-Aminoethyl)-2-(1,1-dioxido-2,3-dihydro-1,4-benzothiazepin-4(5H)-yl)-6-methylquinoline-4-sulfonamide] | 0.202 µM |
| Cc1ccc2nc(N3CCS(=O)(=O)c4ccccc4C3)nc(NCC(O)CO)c2c1 (stereo not drawn) [Example 87-1, 3-{[2-(1,1-Dioxido-2,3-dihydro-1,4-benzothiazepin-4(5H)-yl)-6-methylquinazolin-4-yl]amino}propane-1,2-diol] | 0.096 µM |
| CN(C)CCNc1cc(N2CCCc3ccccc3C2)nc2ccccc12 [Example 118-22, N,N-Dimethyl-N′-[2-(1,3,4,5-tetrahydro-2H-2-benzazepin-2-yl)quinolin-4-yl]ethane-1,2-diamine] | 2.23 µM |

| SMILES | EC50 |
| --- | --- |
| Cc1ccc2nc(N3CCS(=O)(=O)c4ccccc4C3)cc(N3C[C@@H]4[C@@H](N)[C@@H]4C3)c2c1 [Example 19-2, (1R,5S,6S)-3-[2-(1,1-Dioxido-2,3-dihydro-1,4-benzothiazepin-4(5H)-yl)-6-methylquinolin-4-yl]-3-azabicyclo[3.1.0]hexan-6-amine] | 0.011 µM |
| Cc1ccc2nc(N3CCS(=O)(=O)c4ccccc4C3)cc(NCC3(C)CN=C(N)O3)c2c1 (stereo not drawn) [Example 38-2, N-[(2-Amino-5-methyl-4,5-dihydro-1,3-oxazol-5-yl)methyl]-2-(1,1-dioxido-2,3-dihydro-1,4-benzothiazepin-4(5H)-yl)-6-methylquinolin-4-amine] | 0.302 µM |
| Cc1ccc2nc(N3CCC(F)(F)c4ccccc4C3)cc(NCC(C)(C)N)c2c1 [Example 110-12, N˜1˜-[2-(5,5-Difluoro-1,3,4,5-tetrahydro-2H-2-benzazepin-2-yl)-6-methylquinolin-4-yl]-2-methylpropane-1,2-diamine] | 0.072 µM |
| Cc1ccc2nc(N3CCC(F)(F)c4ccccc4C3)cc(NCC3(CN)CS(=O)(=O)C3)c2c1 [Example 112-1, N-{[3-(Aminomethyl)-1,1-dioxidothietan-3-yl]methyl}-2-(5,5-difluoro-1,3,4,5-tetrahydro-2H-2-benzazepin-2-yl)-6-methylquinolin-4-amine] | 3.74 µM |
| COc1ccc2nc(N3CCCc4ccccc4C3)cc(NCCN)c2c1 [Example 118-11, N-[6-Methoxy-2-(1,3,4,5-tetrahydro-2H-2-benzazepin-2-yl)quinolin-4-yl]ethane-1,2-diamine] | 0.323 µM |
| Cc1ccc2nc(N3CCS(=O)(=O)c4ccccc4C3)cc(Nc3ccc(N)cc3)c2c1 [Example 15-2, N-[2-(1,1-Dioxido-2,3-dihydro-1,4-benzothiazepin-4(5H)-yl)-6-methylquinolin-4-yl]benzene-1,4-diamine] | 7.99 µM |
| Cc1ccc2nc(N3CCC(F)(F)c4ccccc4C3)cc(NCC3(CN)COC3)c2c1 [Example 110-15, N-{[3-(Aminomethyl)oxetan-3-yl]methyl}-2-(5,5-difluoro-1,3,4,5-tetrahydro-2H-2-benzazepin-2-yl)-6-methylquinolin-4-amine] | 0.004 µM |
| Cc1ccc2nc(N3CCS(=O)(=O)c4ccccc4C3)cc(N3CCC(N)CC3)c2c1 [Example 9-27, 1-[2-(1,1-Dioxido-2,3-dihydro-1,4-benzothiazepin-4(5H)-yl)-6-methylquinolin-4-yl]piperidin-4-amine] | 0.797 µM |
| Cc1ccc2nc(N3CCS(=O)(=O)c4ccccc4C3)cc(N3CCC(C)(N)C3)c2c1 (stereo not drawn) [Example 64, 1-[2-(1,1-Dioxido-2,3-dihydro-1,4-benzothiazepin-4(5H)-yl)-6-methylquinolin-4-yl]-3-methylpyrrolidin-3-amine] | 0.035 µM |
| N[C@@H]1CN(c2cc(N3CCS(=O)(=O)c4ccccc4C3)nc3ccncc23)C[C@H]1O (relative stereo) [Example 24, trans-4-Amino-1-[2-(1,1-dioxido-2,3-dihydro-1,4-benzothiazepin-4(5H)-yl)-1,6-naphthyridin-4-yl]pyrrolidin-3-ol] | 0.016 µM |
| CC(=O)NCC1(CNc2cc(N3CCS(=O)(=O)c4ccccc4C3)nc3ccc(C)cc23)COC1 [Example 63-2, N-{[3-({[2-(1,1-D ioxido-2,3-dihydro-1,4-benzothiazepin-4(5H)-yl)-6-methylquinolin-4-yl]amino}methyl)oxetan-3-yl]methyl}acetamide] | 2.02 µM |
| Cc1ccc2nc(N3CCS(=O)(=O)c4ccccc4C3)cc(N3CCCC(N)C3)c2c1 (stereo not drawn) [Example 16-1, 1-[2-(1,1-Dioxido-2,3-dihydro-1,4-benzothiazepin-4(5H)-yl)-6-methylquinolin-4-yl]piperidin-3-amine] | 2.57 µM |
| Cc1ccc2nc(N3CCS(=O)(=O)c4ccccc4C3)cc(NCC3(CN)CC(F)(F)C3)c2c1 [Example 3-12, N-{[1-(Aminomethyl)-3,3-difluorocyclobutyl]methyl}-2-(1,1-dioxido-2,3-dihydro-1,4-benzothiazepin-4(5H)-yl)-6-methylquinolin-4-amine] | 1.65 µM |
| COc1ccc2c(c1)S(=O)(=O)CCN(c1cc(N)c3cc(C)ccc3n1)C2 [Example 20-1, 2-(8-Methoxy-1,1-dioxido-2,3-dihydro-1,4-benzothiazepin-4(5H)-yl)-6-methylquinolin-4-amine] | 0.073 µM |
| OCc1cc(N2CCCc3ccccc3C2)nc2ccccc12 [Example 129, [2-(1,3,4,5-Tetrahydro-2H-2-benzazepin-2-yl)quinolin-4-yl]methanol] | 7.88 µM |
